Experimental data reported in patent US20250368666A1, “INDAZOLE COMPOUNDS” (TYRA BIOSCIENCES, INC., priority 2022, published 2025).
Read-outs that look alike come from different tables or passages of the source.

How the values were obtained:
FGFR1 = molecular target: T1, FGFR1 (Homo sapiens, UniProt P11362); test: Kinase binding assay (kinase-tagged T7 phage, affinity beads, qPCR), Kd; settings: read-out: FGFR1 (Kd nM)
T1 construct: made in house; host or cells: E. coli (BL21-derived), T7 phage
Method: (§1) Kinase-tagged T7 phage strains were prepared in an E. coli host derived from the BL21 strain. E. coli were grown to log-phase and infected with T7 phage and incubated with shaking at 32° C. until lysis. The lysates were centrifuged and filtered to remove cell debris. Streptavidin-coated magnetic beads were treated with biotinylated small molecule ligands for 30 minutes at room temperature to generate affinity resins for kinase assays. The liganded beads were blocked with excess biotin and washed with blocking buffer SeaBlock (Pierce), 1% BSA, 0.05% Tween 20, 1 mM DTT to remove unbound ligand and to reduce non-specific binding.
(§2) Test compounds were prepared as 111× stocks in 100% DMSO. Kds were determined using an 11-point 3-fold compound dilution series with three DMSO control points. […] The compounds were then diluted directly into the assays such that the final concentration of DMSO was 0.9%. All reactions performed in polypropylene 384-well plate. Each was a final volume of 0.02 ml. […] The kinase concentration in the eluates was measured by qPCR.
(§3) Binding constants were calculated with a standard dose-response curve using the Hill equation: […]
(§4) The Hill Slope was set to −1. Curves were fitted using a non-linear least square fit with the Levenberg-Marquardt algorithm.

FGFR3 = molecular target: T2, FGFR3 (Homo sapiens, UniProt P22607); test: as above; settings: read-out: FGFR3 (Kd nM)
T2 construct: made in house; host or cells: E. coli (BL21-derived), T7 phage
Method: as §1, §2, §3, §4

[1] = kinase binding assay, 11-point 3-fold dilution series

T1 sequence (P11362 22-822): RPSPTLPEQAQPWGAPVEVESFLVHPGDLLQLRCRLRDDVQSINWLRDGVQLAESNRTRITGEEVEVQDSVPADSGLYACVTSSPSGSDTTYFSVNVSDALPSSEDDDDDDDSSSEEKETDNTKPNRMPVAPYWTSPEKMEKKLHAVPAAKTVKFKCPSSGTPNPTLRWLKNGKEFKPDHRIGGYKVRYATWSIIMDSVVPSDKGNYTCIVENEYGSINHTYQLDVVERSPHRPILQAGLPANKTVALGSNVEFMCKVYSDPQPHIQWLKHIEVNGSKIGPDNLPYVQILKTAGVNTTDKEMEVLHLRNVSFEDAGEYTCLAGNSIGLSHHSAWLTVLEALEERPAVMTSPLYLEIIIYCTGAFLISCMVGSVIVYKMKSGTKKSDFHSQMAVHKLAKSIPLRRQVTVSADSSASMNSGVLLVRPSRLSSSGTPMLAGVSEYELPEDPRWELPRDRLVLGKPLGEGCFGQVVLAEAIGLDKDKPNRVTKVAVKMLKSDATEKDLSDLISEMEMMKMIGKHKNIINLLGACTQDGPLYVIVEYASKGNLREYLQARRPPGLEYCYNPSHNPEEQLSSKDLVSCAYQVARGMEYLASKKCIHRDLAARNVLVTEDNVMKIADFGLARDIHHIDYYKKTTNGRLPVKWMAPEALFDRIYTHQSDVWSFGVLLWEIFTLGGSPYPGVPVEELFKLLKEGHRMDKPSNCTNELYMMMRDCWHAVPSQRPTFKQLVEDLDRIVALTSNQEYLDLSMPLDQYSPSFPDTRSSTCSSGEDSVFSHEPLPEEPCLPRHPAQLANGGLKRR
T2 sequence (P22607 23-806): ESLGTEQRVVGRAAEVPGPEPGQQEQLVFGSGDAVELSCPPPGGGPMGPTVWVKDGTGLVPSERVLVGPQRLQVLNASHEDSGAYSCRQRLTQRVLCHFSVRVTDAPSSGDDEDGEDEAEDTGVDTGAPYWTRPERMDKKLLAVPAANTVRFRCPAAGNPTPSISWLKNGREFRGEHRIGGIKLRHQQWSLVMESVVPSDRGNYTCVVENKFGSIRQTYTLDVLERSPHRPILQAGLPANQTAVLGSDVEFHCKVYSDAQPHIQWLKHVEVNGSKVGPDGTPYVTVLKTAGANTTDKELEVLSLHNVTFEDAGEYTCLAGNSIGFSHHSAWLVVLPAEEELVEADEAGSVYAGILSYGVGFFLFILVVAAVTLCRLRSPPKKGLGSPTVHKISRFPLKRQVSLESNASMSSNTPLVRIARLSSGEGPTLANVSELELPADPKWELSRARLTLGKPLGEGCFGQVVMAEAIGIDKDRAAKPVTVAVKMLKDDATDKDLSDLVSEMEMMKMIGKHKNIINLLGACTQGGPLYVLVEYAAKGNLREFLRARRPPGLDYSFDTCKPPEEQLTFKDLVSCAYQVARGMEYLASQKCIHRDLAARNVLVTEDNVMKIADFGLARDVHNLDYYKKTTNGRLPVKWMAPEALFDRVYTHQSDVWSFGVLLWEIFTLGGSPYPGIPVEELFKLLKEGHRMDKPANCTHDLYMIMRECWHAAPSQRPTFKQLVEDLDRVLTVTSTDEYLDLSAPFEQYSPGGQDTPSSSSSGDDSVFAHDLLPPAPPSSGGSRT

Kd (FGFR1) [nM]	Kd (FGFR3) [nM]	Kd (FGFR1; [1]) [nM]	Kd (FGFR3; [1]) [nM]	Compound
1 to 50	1 to 50	–	–	C[C@@H](Oc1ccc2[nH]nc(-c3cnc(N4CC(C)(NCC(=O)N(C)C)C4)c(F)c3)c2c1)c1c(Cl)cncc1Cl [Example 311, (R)-2-((1-(5-(5-(1-(3,5-dichloropyridin-4-yl)ethoxy)-1H-indazol-3-yl)-3-fluoropyridin-2-yl)-3-methylazetidin-3-yl)amino)-N,N-dimethylacetamide]
1 to 50	1 to 50	–	–	C[C@@H](Oc1ccc2[nH]nc(-c3ccc(N4CC(C)(NCC(F)F)C4)nn3)c2c1)c1c(Cl)cncc1Cl [Example 312, (R)-1-(6-(5-(1-(3,5-dichloropyridin-4-yl)ethoxy)-1H-indazol-3-yl)pyridazin-3-yl)-N-(2,2-difluoroethyl)-3-methylazetidin-3-amine]
1 to 50	1 to 50	–	–	C[C@@H](Oc1ccc2[nH]nc(-c3ccc(N4CC(C)(NCCC#N)C4)nn3)c2c1)c1c(Cl)cncc1Cl [Example 313, (R)-3-((1-(6-(5-(1-(3,5-dichloropyridin-4-yl)ethoxy)-1H-indazol-3-yl)pyridazin-3-yl)-3-methylazetidin-3-yl)amino)propane-nitrile]
1 to 50	1 to 50	–	–	COc1cc2[nH]nc(-c3cnc(N4CC[C@@](C)(N)C4)c(F)c3)c2cc1O[C@H](C)c1c(Cl)cncc1Cl [Example 315, (R)-1-(5-(5-((R)-1-(3,5-dichloropyridin-4-yl)ethoxy)-6-methoxy-1H-indazol-3-yl)-3-fluoropyridin-2-yl)-3-methylpyrrolidin-3-amine]
1 to 50	1 to 50	–	–	COCC1(N)CN(c2ncc(-c3n[nH]c4ccc(O[C@H](C)c5c(Cl)cncc5Cl)cc34)cc2F)C1 [Example 371, 1-[5-[5-[(1R)-1-(3,5-dichloro-4-pyridyl)ethoxy]-1H-indazol-3-yl]-3-fluoro-2-pyridyl]-3-(methoxy-methyl)aze-tidin-3-amine]
1 to 50	1 to 50	–	–	C[C@@H](Oc1ccc2[nH]nc(-c3ccc(N4CC(N)(CCCO)C4)nn3)c2c1)c1c(Cl)cncc1Cl [Example 372, (R)-3-(3-amino-1-(6-(5-(1-(3,5-dichloropyridin-4-yl)ethoxy)-1H-indazol-3-yl)pyridazin-3-yl)azetidin-3-yl)propan-1-ol]
1 to 50	1 to 50	–	–	C[C@H](O)CC1(N)CN(c2ccc(-c3n[nH]c4ccc(O[C@H](C)c5c(Cl)cncc5Cl)cc34)nn2)C1 [Example 373, (S)-1-(3-amino-1-(6-(5-((R)-1-(3,5-dichloropyridin-4-yl)ethoxy)-1H-indazol-3-yl)pyridazin-3-yl)azetidin-3-yl)propan-2-ol]
1 to 50	1 to 50	–	–	C[C@@H](O)CC1(N)CN(c2ccc(-c3n[nH]c4ccc(O[C@H](C)c5c(Cl)cncc5Cl)cc34)nn2)C1 [Example 374, (R)-1-(3-amino-1-(6-(5-((R)-1-(3,5-dichloropyridin-4-yl)ethoxy)-1H-indazol-3-yl)pyridazin-3-yl)azetidin-3-yl)propan-2-ol]
1 to 50	1 to 50	–	–	C[C@@H](Oc1ccc2[nH]nc(-c3cnc(N4CCC(N)(CS(C)(=O)=O)CC4)c(F)c3)c2c1)c1c(Cl)cncc1Cl [Example 375, (R)-1-(5-(5-(1-(3,5-dichloropyridin-4-yl)ethoxy)-1H-indazol-3-yl)-3-fluoropyridin-2-yl)-4-((methylsulfonyl)methyl)piperidin-4-amine]
1 to 50	1 to 50	–	–	COc1cc2[nH]nc(-c3ccc(N4CC(C)(N)C4)nc3)c2cc1O[C@H](C)c1c(Cl)cncc1Cl [Example 379, (R)-1-(5-(5-(1-(3,5-dichloropyridin-4-yl)ethoxy)-6-methoxy-1H-indazol-3-yl)pyridin-2-yl)-3-methylazetidin-3-amine]
1 to 50	1 to 50	–	–	COc1cc2[nH]nc(-c3ccc(N4CC[C@](C)(N)C4)nc3)c2cc1O[C@H](C)c1c(Cl)cncc1Cl [Example 381, (S)-1-(5-(5-((R)-1-(3,5-dichloropyridin-4-yl)ethoxy)-6-methoxy-1H-indazol-3-yl)pyridin-2-yl)-3-methyl-pyrrolidin-3-amine]
–	–	1 to 50	1 to 50	COc1cc2[nH]nc(-c3ccc(N4CCC(C)(N)CC4)nc3)c2cc1O[C@H](C)c1c(Cl)cncc1Cl [Example 382, (R)-1-(5-(5-(1-(3,5-dichloropyridin-4-yl)ethoxy)-6-methoxy-1H-indazol-3-yl)pyridin-2-yl)-4-methylpiperidin-4-amine]
–	–	1 to 50	1 to 50	COc1cc2[nH]nc(-c3cnc(N4CCC(C)(N)CC4)c(F)c3)c2cc1O[C@H](C)c1c(Cl)cncc1Cl [Example 383, (R)-1-(5-(5-(1-(3,5-dichloropyridin-4-yl)ethoxy)-6-methoxy-1H-indazol-3-yl)-3-fluoropyridin-2-yl)-4-methylpiperidin-4-amine]
–	–	1 to 50	1 to 50	C[C@@H](O)CC1(N)CN(c2ncc(-c3n[nH]c4ccc(O[C@H](C)c5c(Cl)cncc5Cl)cc34)cc2F)C1 [Example 385, (R)-1-(3-amino-1-(5-(5-((R)-1-(3,5-dichloropyridin-4-yl)ethoxy)-1H-indazol-3-yl)-3-fluoropyridin-2-yl)azetidin-3-yl)propan-2-ol]
–	–	1 to 50	1 to 50	COc1cc2[nH]nc(-c3cnc(N4CC[C@](C)(N)C4)c(F)c3)c2cc1O[C@H](C)c1c(Cl)cncc1Cl [Example 389, (S)-1-(5-(5-((R)-1-(3,5-dichloropyridin-4-yl)ethoxy)-6-methoxy-1H-indazol-3-yl)-3-fluoropyridin-2-yl)-3-methylpyrrolidin-3-amine]
–	–	1 to 50	1 to 50	COc1cc2[nH]nc(-c3ccc(N4CC(C)(N)C4)nn3)c2cc1O[C@H](C)c1c(Cl)cncc1Cl [Example 393, (R)-1-(6-(5-(1-(3,5-dichloropyridin-4-yl)ethoxy)-6-methoxy-1H-indazol-3-yl)pyridazin-3-yl)-3-methylazetidin-3-amine]
–	–	1 to 50	1 to 50	C[C@@H](Oc1ccc2[nH]nc(-c3cnc(N4CC(N)(CC(F)F)C4)c(F)c3)c2c1)c1c(Cl)cncc1Cl [Example 394, (R)-1-(5-(5-(1-(3,5-dichloropyridin-4-yl)ethoxy)-1H-indazol-3-yl)-3-fluoropyridin-2-yl)-3-(2,2-difluoro-ethyl)azetidin-3-amine]
–	–	1 to 50	1 to 50	C[C@@H](Oc1ccc2[nH]nc(-c3cnc(N4CCC(N)(CCS(C)(=O)=O)CC4)c(F)c3)c2c1)c1c(Cl)cncc1Cl [Example 395, (R)-1-(5-(5-(1-(3,5-dichloropyridin-4-yl)ethoxy)-1H-indazol-3-yl)-3-fluoropyridin-2-yl)-4-(2-(methylsulfonyl)ethyl) piperidin-4-amine]
–	–	1 to 50	1 to 50	C[C@@H](Oc1ccc2[nH]nc(-c3cnc(N4CC[C@](C)(N)C4)c(F)c3)c2c1)c1c(Cl)cncc1Cl [Example 396, (S)-1-(5-(5-((R)-1-(3,5-dichloropyridin-4-yl)ethoxy)-1H-indazol-3-yl)-3-fluoropyridin-2-yl)-3-methylpyrrolidin-3-amine]
–	–	1 to 50	1 to 50	C[C@@H](Oc1ccc2[nH]nc(-c3ccc(N4CC(N)(CC(F)F)C4)nn3)c2c1)c1c(Cl)cncc1Cl [Example 397, (R)-1-(6-(5-(1-(3,5-dichloropyridin-4-yl)ethoxy)-1H-indazol-3-yl)pyridazin-3-yl)-3-(2,2-difluoro-ethyl)azetidin-3-amine]
–	–	1 to 50	1 to 50	C[C@@H](Oc1ccc2[nH]nc(-c3ccc(N4CCC(N)(CCS(C)(=O)=O)CC4)nn3)c2c1)c1c(Cl)cncc1Cl [Example 398, (R)-1-(6-(5-(1-(3,5-dichloropyridin-4-yl)ethoxy)-1H-indazol-3-yl)pyridazin-3-yl)-4-(2-(methylsulfonyl)ethyl) piperidin-4-amine]
–	–	1 to 50	1 to 50	CNC(=O)CNC1(C)CN(c2ncc(-c3n[nH]c4ccc(O[C@H](C)c5c(Cl)cncc5Cl)cc34)cc2F)C1 [Example 399, (R)-2-((1-(5-(5-(1-(3,5-dichloropyridin-4-yl)ethoxy)-1H-indazol-3-yl)-3-fluoropyridin-2-yl)-3-methylazetidin-3-yl)amino)-N-methylacetamide]
–	–	1 to 50	1 to 50	C[C@@H](Oc1ccc2[nH]nc(-c3cnc(N4CC[C@@](C)(N)C4)c(F)c3)c2c1)c1c(Cl)cncc1Cl [Example 400, (R)-1-(5-(5-((R)-1-(3,5-dichloropyridin-4-yl)ethoxy)-1H-indazol-3-yl)-3-fluoropyridin-2-yl)-3-methylpyrrolidin-3-amine]
–	–	1 to 50	1 to 50	C[C@@H](Oc1ccc2[nH]nc(-c3cnc(N4CCC(C)(N)CC4)c(F)c3)c2c1)c1c(Cl)cncc1Cl [Example 401]
–	–	1 to 50	1 to 50	CC[C@@]1(N)CCN(c2ccc(-c3n[nH]c4ccc(O[C@H](C)c5c(Cl)cncc5Cl)cc34)nn2)C1 [Example 402, (R)-1-(6-(5-((R)-1-(3,5-dichloropyridin-4-yl)ethoxy)-1H-indazol-3-yl)pyridazin-3-yl)-3-ethylpyrrolidin-3-amine]
